Source: patent US12510533B2, “Methods for treating multiple myeloma and the use of companion biomarkers for 4-(4-(4-(((2-(2,6-dioxopiperidin-3-yl)-1-oxoisoindolin-4-yl)oxy)methyl)benzyl)piperazin-1-yl)-3-fluorobenzonitrile” (Celgene Corporation, priority 2018, dated 2025)

Assays:
Aiolos, Ikaros, ZFP91 = assay: Immunoblot of OPM2 cells after five-day incubation; type: cell-based, human; conditions: Compound 2 alone
Experimental: FIG. 4 illustrates that Compound 2 induced the degradation of Ikaros, Aiolos, ZFP91, c-Myc, and IRF4, which correlates with induction of the apoptotic protein cleaved-Caspase 3, and the cell cycle arrest protein p21. Immunoblot analysis of OPM2 parental cells incubated with Compound 2 at the indicated concentrations is shown. Actin is a loading control.
Ikaros and Aiolos degradation was followed by reduction in the levels of two additional and highly critical transcription factors, c-Myc and IRF4 (FIG. 4). The loss or reduction of these factors was associated with an increase of the cyclin-dependent kinase inhibitor p21 and induction of apoptosis, as measured by cleaved caspase-3 (FIG. 4).

sFLC = assay: Phase 1 study, serum free light chain (sFLC); type: in vivo, human; conditions: two subjects; during the first cycle of treatment
Excerpt: This is an open-label, multi-center, international, Phase 1 study to assess the safety, PK/PD and preliminary efficacy of Compound 2 in combination with dexamethasone in subjects with RRMM.
Serum samples were taken before and during Compound 2 treatment at specified time points. Serum free light chain (sFLC) can be used as an efficacy measurement in multiple myeloma. The short half-life of sFLC provides an opportunity to follow the dynamic effect of compound treatment on disease burden. […] The extent of decrease from baseline and duration of the effect may predict response to treatment with Compound 2.

[1] = tested on: relapsed and refractory multiple myeloma; assay: Phase 1 study, response to treatment (IMWG criteria); type: in vivo, human; conditions: subjects with >80% decrease in sBCMA or sFLC
IL-2 = IL-2 secretion from anti-CD3 antibody-stimulated healthy donor PBMCs; type: cell-based, human
Experimental: The immunomodulatory activity of Compound 2 on T cell receptor (TCR)-activated healthy PBMCs was assessed.
The effect of Compound 2 in combination with different concentrations of dexamethasone on the ability of PBMCs to produce IL-2 was explored. […]

[2] = tested on: Aiolos, Ikaros, and ZFP91; assay: Phase 1 study, IHC of bone marrow aspirate clots; type: in vivo, human; conditions: before and during treatment (Cycle 1)
Excerpt: FIG. 26A-FIG. 26E illustrate that the effect of Compound 2 on biomarker expression in CD138+ plasma cells from relapsed/refractory multiple myeloma patients. (FIG. 26A) Aiolos, (FIG. 26B) Ikaros, (FIG. 26C) ZFP91, (FIG. 26D) c-Myc, and (FIG. 26E) IRF4.
Bone marrow aspirate samples were taken before and during Compound 2 treatment (Cycle 1). Clots were made from each sample and processed into formalin fixed paraffin embedded blocks. Immunohistochemistry (IHC) assays were used to evaluate the biomarker expression. IHC scores were determined based on percent and intensity of positive staining.

Ikaros [3] = molecular target: T1, Ikaros (Homo sapiens, UniProt Q13422+Q96SW2); assay: Ikaros degradation in CD4+ T cells; type: cell-based; design: The effects of Compound 2 on the degradation of Ikaros in CD4+ and CD8+ T cells; endogenous in cells; host or cells: CD4+ and CD8+ T cells of healthy donors; CD34+ bone marrow cells of healthy donors; CD3+ T cells of multiple myeloma patients; conditions: 24 hours, read-out: Ikaros degradation IC50
Experimental: FIG. 22A-FIG. 22C illustrate that Compound 2 induces degradation of Ikaros in CD4+ T cells. […] Data shown are an average from two donors and are represented as MFI normalized to DMSO control.
The effects of Compound 2 on the degradation of Ikaros in CD4+ and CD8+ T cells over a 72 hour time course were investigated. The ability of Compound 2 to induce effector cytokine release correlated with degradation of Ikaros in CD4+ T cells, a known transcriptional repressor of IL-2 (FIG. 22A-FIG. 22C). […] The ability of Compound 2 to degrade Ikaros was also observed at the 48 and 72 hour time point in both CD4+(FIG. 22B and FIG. 22C) and CD8+ (data not shown) T cell populations. […] Thus, Ikaros and Aiolos can serve as biomarkers of T-cell activation.

Ikaros [4] = molecular target: T1, Ikaros; assay: Phase 1 study, Ikaros expression by flow cytometry in CD3+ T cells; type: in vivo; design: The effects of Compound 2 on the degradation of Ikaros in CD4+ and CD8+ T cells; endogenous in cells; CD34+ bone marrow cells of healthy donors; CD3+ T cells of multiple myeloma patients; conditions: QD days 1-10, 15-24/28 and BID days 1-3, 15-17/28; recovered during dosing interruptions
Experimental: FIG. 25A and FIG. 25B illustrate that Compound 2 induced Ikaros degradation in CD3+ T cells from peripheral blood of relapsed/refractory multiple myeloma patients after (FIG. 25A) the once daily (QD) 1-10, 15-24/28 schedule, or (FIG. 25B) the twice daily (BID) 1-3, 15-17/28 schedule.
Ikaros expression was measured by flow cytometry in CD3+ T cells before and during Compound 2 treatment in two different dosing schedules (QD administration on days 1 to 10 and days 15 to 24 of a 28 day cycle, and BID administration on days 1 to 3 and days 15 to 17 of a 28 day cycle).

[5] = tested on: multiple myeloma cell lines with acquired resistance; assay: Proliferation (CellTiter-Glo, 5 days) of parental and lenalidomide- or pomalidomide-resistant MM cell lines; type: cell-based, human
Experimental: Cell lines were treated with (FIG. 11A) Pomalidomide, or (FIG. 11B) Compound 2 for 5 days and IC50 values were assessed using an ATP determination assay (CellTiter-Glo). Percent control was calculated by subtracting the background and normalizing to the DMSO control (100% of control).
Cells were treated for 5 days and then assessed using an ATP determination assay (CellTiter-Glo). The percentage of control was calculated by subtracting the background and normalizing to the DMSO control (100% of control).
Proliferation was assessed using the CellTitre-Glo® assay.

Ikaros and Aiolos = assay: Immunoblot of Ikaros and Aiolos in H929-1051 cells; type: cell-based, human; conditions: within 4 hours
Experimental: FIG. 6A and FIG. 6B illustrate that Compound 2 degraded Ikaros and Aiolos in a concentration dependent manner, which induced apoptosis and cell cycle arrest in pomalidomide-resistant multiple myeloma cells. Shown is immunoblot analysis of pomalidomide-resistant MM cells (H929-1051) incubated with Compound 2 for (FIG. 6A) 4 hours or (FIG. 6B) 72 hours.
Incubation with concentrations as low as 1 nM of Compound 2 promoted the robust degradation of Ikaros and Aiolos within 4 hours (FIG. 6A).

T1 sequence (Q13422 whole entry): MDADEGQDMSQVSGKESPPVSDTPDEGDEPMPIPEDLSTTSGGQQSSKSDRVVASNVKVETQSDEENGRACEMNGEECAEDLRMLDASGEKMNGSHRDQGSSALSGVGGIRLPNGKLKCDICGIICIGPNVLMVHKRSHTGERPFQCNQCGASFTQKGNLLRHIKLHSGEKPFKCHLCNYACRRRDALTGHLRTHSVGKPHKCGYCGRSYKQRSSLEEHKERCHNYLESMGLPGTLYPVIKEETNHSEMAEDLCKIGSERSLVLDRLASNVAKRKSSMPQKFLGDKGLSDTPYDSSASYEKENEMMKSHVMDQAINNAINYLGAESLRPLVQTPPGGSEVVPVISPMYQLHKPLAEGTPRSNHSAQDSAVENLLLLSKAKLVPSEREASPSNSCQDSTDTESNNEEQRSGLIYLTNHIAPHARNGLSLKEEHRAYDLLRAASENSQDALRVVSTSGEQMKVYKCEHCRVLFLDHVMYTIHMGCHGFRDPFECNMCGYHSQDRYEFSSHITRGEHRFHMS
T1 sequence (Q16531 2-1140, further chain): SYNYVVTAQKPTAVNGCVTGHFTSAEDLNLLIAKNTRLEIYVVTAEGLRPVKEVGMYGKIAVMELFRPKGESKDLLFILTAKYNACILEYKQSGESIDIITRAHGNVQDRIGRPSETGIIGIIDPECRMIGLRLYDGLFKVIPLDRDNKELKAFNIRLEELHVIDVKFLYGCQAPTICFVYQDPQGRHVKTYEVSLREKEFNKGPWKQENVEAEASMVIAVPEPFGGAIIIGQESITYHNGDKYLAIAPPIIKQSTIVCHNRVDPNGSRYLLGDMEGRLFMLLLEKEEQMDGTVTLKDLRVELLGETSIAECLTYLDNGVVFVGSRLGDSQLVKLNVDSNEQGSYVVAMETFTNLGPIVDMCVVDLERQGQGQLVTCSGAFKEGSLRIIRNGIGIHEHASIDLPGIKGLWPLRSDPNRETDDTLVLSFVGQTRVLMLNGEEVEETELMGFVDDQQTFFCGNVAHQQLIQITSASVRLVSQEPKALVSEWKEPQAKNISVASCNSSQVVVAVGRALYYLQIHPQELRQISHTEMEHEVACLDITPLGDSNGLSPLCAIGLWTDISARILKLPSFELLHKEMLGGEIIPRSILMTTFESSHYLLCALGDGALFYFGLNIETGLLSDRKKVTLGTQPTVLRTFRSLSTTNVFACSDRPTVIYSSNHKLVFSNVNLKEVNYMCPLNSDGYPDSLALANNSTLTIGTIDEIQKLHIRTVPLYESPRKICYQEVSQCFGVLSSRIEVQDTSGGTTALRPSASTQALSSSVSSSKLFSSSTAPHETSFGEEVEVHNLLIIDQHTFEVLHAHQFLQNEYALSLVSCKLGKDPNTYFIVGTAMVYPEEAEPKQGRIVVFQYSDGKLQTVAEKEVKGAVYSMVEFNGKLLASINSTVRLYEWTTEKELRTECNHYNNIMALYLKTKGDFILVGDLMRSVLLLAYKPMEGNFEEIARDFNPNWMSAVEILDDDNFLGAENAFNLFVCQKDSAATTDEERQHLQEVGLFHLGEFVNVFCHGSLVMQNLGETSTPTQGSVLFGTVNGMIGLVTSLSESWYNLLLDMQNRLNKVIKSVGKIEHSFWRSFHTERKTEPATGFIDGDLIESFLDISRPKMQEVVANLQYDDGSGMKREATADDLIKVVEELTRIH
T1 sequence (Q96SW2 whole entry): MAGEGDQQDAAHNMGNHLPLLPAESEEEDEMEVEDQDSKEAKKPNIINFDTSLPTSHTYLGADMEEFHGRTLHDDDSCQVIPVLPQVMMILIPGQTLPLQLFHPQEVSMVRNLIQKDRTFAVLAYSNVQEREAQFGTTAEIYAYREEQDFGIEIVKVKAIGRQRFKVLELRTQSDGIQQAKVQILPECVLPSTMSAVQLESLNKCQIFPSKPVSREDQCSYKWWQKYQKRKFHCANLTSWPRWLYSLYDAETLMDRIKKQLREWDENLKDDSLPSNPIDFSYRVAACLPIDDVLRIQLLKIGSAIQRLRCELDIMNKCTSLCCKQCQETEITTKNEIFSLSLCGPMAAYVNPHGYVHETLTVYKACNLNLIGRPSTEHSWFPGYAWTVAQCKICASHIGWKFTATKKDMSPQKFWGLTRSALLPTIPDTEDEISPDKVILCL

With `N#Cc1ccc(N2CCN(Cc3ccc(COc4cccc5c4CN([C@H]4CCC(=O)NC4=O)C5=O)cc3)CC2)c(F)c1` [Compound 2, (S)-4-(4-(4-(((2-(2,6-dioxopiperidin-3-yl)-1-oxoisoindolin-4-yl)oxy)methyl)benzyl)piperazin-1-yl)-3-fluorobenzonitrile] the “expression level of Aiolos and Ikaros, as well as ZFP91” value (Aiolos, Ikaros, ZFP91) was “significantly decreased”, the “decrease in sFLC” value (sFLC) was > 80% and the response to treatment [1] was “VGPR and PR”. The “peak IL-2 production above the vehicle control” value (IL-2; 24 hours) was 5.5 fold, the EC50 (IL-2; Homo sapiens, PBMC, 72 h, read-out: IL-2 secretion, mean half-maximal effective concentration (EC50)) was 0.014 nM and the “Compound 2 concentration at peak IL-2 response” value (IL-2; in combination with 10 nM dexamethasone) was 10 pM. For the same compound, the “IL-2 induction above the vehicle control” value (IL-2; in combination with 10 nM dexamethasone, 4 donors, 72 hours) was “at least 10 fold”, the IL-2 induction (IL-2; in combination with 100 nM dexamethasone) was “little induction of IL-2 above baseline” and the “biomarker expression in the tumor compartment (IHC)” value [2] was “induced degradation of Aiolos, Ikaros, and ZFP91”. For the same compound, the DC50 (Ikaros [3]) was 0.3 nM, the “Ikaros degradation in CD3+ T cells” value (Ikaros [4]) was “dose dependent” and the “sensitivity of cell lines with acquired resistance and low CRBN” value [5] was “sensitive”. The anti-proliferative activity ([5]; DF15R cell line, lacks CRBN expression) was “little anti-proliferative activity” and the “lowest concentration promoting robust degradation of Ikaros and Aiolos” value (Ikaros and Aiolos) was 1 nM.
